Experimental data from patent US10703764B2, “Benzopiperazine compositions as BET bromodomain inhibitors” (FORMA Therapeutics, Inc., priority 2013, dated 2020).

Columns and labels:
[1] = target: T1, BRD4 BD2 (Homo sapiens, UniProt O60885); assay: AlphaScreen binding assay, BRD4 Bromodomain 2
T1 construct: made in house
Summary of the method: (§1)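 An AlphaScreen competition format was used with His-BRD4 BD1 or BD2 and biotin-H4 K5/8/12/16-acetyl peptide, each at matched final levels of 50 nM (BD1) or 100 nM (BD2). Incubation in HEPES/NaCl buffer with 0.1% BSA and 0.01% Triton X-100 ran ≥1 h before IC50 determination.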

[2] = target: T2, BRD4 BD1 (Homo sapiens, UniProt O60885); assay: AlphaScreen binding assay, BRD4 Bromodomain 1
T2 construct: made in house
Summary of the method: as §1

[3] = test system: MV4-11 cells; assay: Oncology cell growth assay (3-day proliferation, CellTiter-Glo); format: cell-based; settings: Homo sapiens, MV4-11, 72 h, AML cell line MV4-11, 72 hours, compounds grouped by IC50 range, read-out: MV4-11 IC50 (inhibition of proliferation, gIC50)
Summary of the method: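 72 h, 37° C, 5% CO2; MV4-11, 3000 cells/well, RPMI 1640 + 10% FBS. Compound final 10, 3.3, 1.1, 0.37, 0.12, 0.041, 0.013, 0.0045 μM. Readout CellTiter-Glo luminescence; gIC50 by 4-parameter logistic fit, normalised to DMSO and no-cell background.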

| Compound | IC50 [1] | IC50 [2] | IC50 [3] |
| --- | --- | --- | --- |
| COC(=O)N1c2ccc(-c3cnn(C(C)(C)CO)c3)cc2N(C(=O)Oc2ccc(F)cc2)C[C@@H]1C [Example I-1024] | < 50 nM | 100 to 1000 nM | 100 to 500 nM |
| COC(=O)N1c2ccc(-c3cnn(CCC#N)c3)cc2N(C(=O)Oc2ccc(F)cc2)C[C@@H]1C [Example I-1025] | < 50 nM | 100 to 1000 nM | > 500 nM |
| CC(=O)N1c2ccc(-c3ccc4c(c3)CCN4S(C)(=O)=O)cc2N(C(=O)Oc2ccc(F)cc2)C[C@@H]1C [Example I-1026] | 50 to 500 nM | 100 to 1000 nM | 100 to 500 nM |
| CCS(=O)(=O)c1ccc(-c2ccc3c(c2)N(C(=O)C2CC2)C[C@H](C)N3C(C)=O)cc1 [Example I-1027] | 50 to 500 nM | 1000 to 10000 nM | 100 to 500 nM |
| CCS(=O)(=O)c1ccc(-c2ccc3c(c2)N(C(=O)C2CCC2)C[C@H](C)N3C(C)=O)cc1 [Example I-1028] | 50 to 500 nM | 1000 to 10000 nM | > 500 nM |
| CCOC(=O)N1C[C@H](C)N(C(C)=O)c2ccc(-c3ccc(S(=O)(=O)CC)cc3)cc21 [Example I-1029] | 50 to 500 nM | 1000 to 10000 nM | 100 to 500 nM |
| CCS(=O)(=O)c1ccc(-c2ccc3c(c2)N(C(=O)OC(C)C)C[C@H](C)N3C(C)=O)cc1 [Example I-1030] | 50 to 500 nM | 100 to 1000 nM | 100 to 500 nM |
| CC(=O)N1c2ccc(-c3ccc(S(=O)(=O)C4CC4)cc3)cc2N(C(=O)C2CC2)C[C@@H]1C [Example I-1031] | 50 to 500 nM | 1000 to 10000 nM | 100 to 500 nM |
| CC(=O)N1c2ccc(-c3ccc(S(=O)(=O)C4CC4)cc3)cc2N(C(=O)C2CCC2)C[C@@H]1C [Example I-1032] | 50 to 500 nM | 1000 to 10000 nM | 100 to 500 nM |
| CCOC(=O)N1C[C@H](C)N(C(C)=O)c2ccc(-c3ccc(S(=O)(=O)C4CC4)cc3)cc21 [Example I-1033] | 50 to 500 nM | 100 to 1000 nM | 100 to 500 nM |
| CC(=O)N1c2ccc(-c3ccc(S(=O)(=O)C4CC4)cc3)cc2N(C(=O)OC(C)C)C[C@@H]1C [Example I-1034] | 50 to 500 nM | 100 to 1000 nM | 100 to 500 nM |
| CC(=O)N1c2ccc(-c3ccc(S(=O)(=O)NCCO)cc3)cc2N(C(=O)C2CC2)C[C@@H]1C [Example I-1035] | 50 to 500 nM | 1000 to 10000 nM | > 500 nM |
| CC(=O)N1c2ccc(-c3ccc(S(=O)(=O)NCCO)cc3)cc2N(C(=O)C2CCC2)C[C@@H]1C [Example I-1036] | 50 to 500 nM | 1000 to 10000 nM | 100 to 500 nM |
| CCOC(=O)N1C[C@H](C)N(C(C)=O)c2ccc(-c3ccc(S(=O)(=O)NCCO)cc3)cc21 [Example I-1037] | 50 to 500 nM | 1000 to 10000 nM | 100 to 500 nM |
| CC(=O)N1c2ccc(-c3ccc(S(=O)(=O)NCCO)cc3)cc2N(C(=O)OC(C)C)C[C@@H]1C [Example I-1038] | 50 to 500 nM | 100 to 1000 nM | 100 to 500 nM |
| CC(=O)N1c2ccc(-c3cccc(S(N)(=O)=O)c3)cc2N(C(=O)C2CC2)C[C@@H]1C [Example I-1039] | < 50 nM | 1000 to 10000 nM | 100 to 500 nM |
| CC(=O)N1c2ccc(-c3cccc(S(N)(=O)=O)c3)cc2N(C(=O)C2CCC2)C[C@@H]1C [Example I-1040] | < 50 nM | 1000 to 10000 nM | 100 to 500 nM |
| CCOC(=O)N1C[C@H](C)N(C(C)=O)c2ccc(-c3cccc(S(N)(=O)=O)c3)cc21 [Example I-1041] | 50 to 500 nM | 1000 to 10000 nM | 100 to 500 nM |
| CC(=O)N1c2ccc(-c3cccc(S(N)(=O)=O)c3)cc2N(C(=O)OC(C)C)C[C@@H]1C [Example I-1042] | 50 to 500 nM | 1000 to 10000 nM | 100 to 500 nM |
| CC(=O)N1c2ccc(-c3cccc(NS(C)(=O)=O)c3)cc2N(C(=O)C2CC2)C[C@@H]1C [Example I-1043] | 50 to 500 nM | 1000 to 10000 nM | > 500 nM |

| Compound | IC50 [1] | IC50 [2] | IC50 [3] |
| --- | --- | --- | --- |
| CC(=O)N1c2ccc(-c3cccc(NS(C)(=O)=O)c3)cc2N(C(=O)C2CCC2)C[C@@H]1C [Example I-1044] | 50 to 500 nM | 1000 to 10000 nM | > 500 nM |
| CCOC(=O)N1C[C@H](C)N(C(C)=O)c2ccc(-c3cccc(NS(C)(=O)=O)c3)cc21 [Example I-1045] | 50 to 500 nM | 1000 to 10000 nM | > 500 nM |
| CC(=O)N1c2ccc(-c3cccc(S(=O)(=O)N(C)C)c3)cc2N(C(=O)C2CC2)C[C@@H]1C [Example I-1046] | 50 to 500 nM | 1000 to 10000 nM | > 500 nM |
| CC(=O)N1c2ccc(-c3cccc(S(=O)(=O)N(C)C)c3)cc2N(C(=O)C2CCC2)C[C@@H]1C [Example I-1047] | 50 to 500 nM | 1000 to 10000 nM | > 500 nM |
| CCOC(=O)N1C[C@H](C)N(C(C)=O)c2ccc(-c3cccc(S(=O)(=O)N(C)C)c3)cc21 [Example I-1048] | 50 to 500 nM | 1000 to 10000 nM | > 500 nM |
| CC(=O)N1c2ccc(-c3cccc(S(=O)(=O)N(C)C)c3)cc2N(C(=O)OC(C)C)C[C@@H]1C [Example I-1049] | 50 to 500 nM | 1000 to 10000 nM | 100 to 500 nM |
| CC(=O)N1c2ccc(-c3cccc(S(C)(=O)=O)c3)cc2N(C(=O)C2CC2)C[C@@H]1C [Example I-1050] | 50 to 500 nM | 1000 to 10000 nM | > 500 nM |
| CC(=O)N1c2ccc(-c3cccc(S(C)(=O)=O)c3)cc2N(C(=O)C2CCC2)C[C@@H]1C [Example I-1051] | 50 to 500 nM | 1000 to 10000 nM | > 500 nM |
| CCOC(=O)N1C[C@H](C)N(C(C)=O)c2ccc(-c3cccc(S(C)(=O)=O)c3)cc21 [Example I-1052] | 50 to 500 nM | 1000 to 10000 nM | > 500 nM |
| CC(=O)N1c2ccc(-c3cccc(S(C)(=O)=O)c3)cc2N(C(=O)OC(C)C)C[C@@H]1C [Example I-1053] | 50 to 500 nM | 1000 to 10000 nM | 100 to 500 nM |
| CCS(=O)(=O)Nc1cccc(-c2ccc3c(c2)N(C(=O)C2CC2)C[C@H](C)N3C(C)=O)c1 [Example I-1054] | 50 to 500 nM | 1000 to 10000 nM | 100 to 500 nM |
| CCS(=O)(=O)Nc1cccc(-c2ccc3c(c2)N(C(=O)C2CCC2)C[C@H](C)N3C(C)=O)c1 [Example I-1055] | 50 to 500 nM | 1000 to 10000 nM | > 500 nM |
| CCOC(=O)N1C[C@H](C)N(C(C)=O)c2ccc(-c3cccc(NS(=O)(=O)CC)c3)cc21 [Example I-1056] | 50 to 500 nM | 1000 to 10000 nM | > 500 nM |
| CCS(=O)(=O)Nc1cccc(-c2ccc3c(c2)N(C(=O)OC(C)C)C[C@H](C)N3C(C)=O)c1 [Example I-1057] | 50 to 500 nM | 100 to 1000 nM | 100 to 500 nM |
| CC(=O)N1c2ccc(-c3ccc(N4CCOCC4)cc3)cc2N(C(=O)C2CC2)C[C@@H]1C [Example I-1058] | 50 to 500 nM | 1000 to 10000 nM | 100 to 500 nM |
| CC(=O)N1c2ccc(-c3ccc(N4CCOCC4)cc3)cc2N(C(=O)C2CCC2)C[C@@H]1C [Example I-1059] | 50 to 500 nM | 1000 to 10000 nM | 100 to 500 nM |
| CCOC(=O)N1C[C@H](C)N(C(C)=O)c2ccc(-c3ccc(N4CCOCC4)cc3)cc21 [Example I-1060] | 50 to 500 nM | 1000 to 10000 nM | > 500 nM |
| CC(=O)N1c2ccc(-c3ccc(N4CCOCC4)cc3)cc2N(C(=O)OC(C)C)C[C@@H]1C [Example I-1061] | 50 to 500 nM | 1000 to 10000 nM | > 500 nM |
| CC(=O)N1c2ccc(-c3ccc(S(=O)(=O)C(C)C)cc3)cc2N(C(=O)C2CC2)C[C@@H]1C [Example I-1062] | 50 to 500 nM | 1000 to 10000 nM | > 500 nM |
| CC(=O)N1c2ccc(-c3ccc(S(=O)(=O)C(C)C)cc3)cc2N(C(=O)C2CCC2)C[C@@H]1C [Example I-1063] | 50 to 500 nM | 1000 to 10000 nM | > 500 nM |
